Earlier results, collected in publication PMC9103764, “Pilot Study on Acute Effects of Pharmacological Intraperitoneal L-Homoarginine on Homeostasis of Lysine and Other Amino Acids in a Rat Model of Isoprenaline-Induced Takotsubo Cardiomyopathy” (International Journal of Molecular Sciences, 2022).

Tested on: serotonin receptor 4
Details: cited from earlier work

For NCCCC[C@H](N)C(=O)O [Lys, L-lysine], the “action at serotonin receptor 4” value is given as “partial serotonin receptor 4 antagonist”.
